# Results reported in the supplement of paper PMC10307832.
# How the values were obtained:
# Test in all cases: relative viability (nuclei count vs DMSO), 5 days (fraction); higher = more cells survive
# [1] = compound: CN1CCN(CC1)C2=CC(=C(C=C2)NC3=NC(=C(S3)C(=O)C4=C(C=CC=C4Cl)Cl)N)OC [XMD14-99] + C[C@]1(O)C[C@@H](c2nc(-c3ccc4ccc(-c5ccccc5)nc4c3)c3c(N)nccn32)C1 [Linsitinib] (partner 1 µM)
# In short: (§1)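 Values are medians from duplicate plates. Each reflects relative viability, defined as the nuclei count of treated wells over that of vehicle wells. Lung cancer cell lines in 1536-well plates were pin-tool dosed one day after seeding with one drug alone or with a fixed anchor-drug dose plus five library-drug doses (not always all listed) in √10 steps, then fixed, stained and imaged at 4× after 5 days.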
# [2] = compound: CN1CCN(CC1)C2=CC(=C(C=C2)NC3=NC(=C(S3)C(=O)C4=C(C=CC=C4Cl)Cl)N)OC [XMD14-99] + Cc1cc(Nc2cc(N3CCN(C)CC3)nc(Sc3ccc(NC(=O)C4CC4)cc3)n2)n[nH]1 [Tozasertib] (partner 0.1 µM)
# In short: as §1
# [3] = compound: CN1CCN(CC1)C2=CC(=C(C=C2)NC3=NC(=C(S3)C(=O)C4=C(C=CC=C4Cl)Cl)N)OC [XMD14-99] + O=C(c1cc(Cc2n[nH]c(=O)c3ccccc23)ccc1F)N1CCN(C(=O)C2CC2)CC1 [Olaparib] (partner 8 µM)
# In short: as §1
# [4] = compound: CN1CCN(CC1)C2=CC(=C(C=C2)NC3=NC(=C(S3)C(=O)C4=C(C=CC=C4Cl)Cl)N)OC [XMD14-99] + CS(=O)(=O)CCNCc1ccc(-c2ccc3ncnc(Nc4ccc(OCc5cccc(F)c5)c(Cl)c4)c3c2)o1 [Lapatinib] (partner 2 µM)
# In short: as §1
# [5] = compound: CN1CCN(CC1)C2=CC(=C(C=C2)NC3=NC(=C(S3)C(=O)C4=C(C=CC=C4Cl)Cl)N)OC [XMD14-99] + CC(C)C[C@H](NC(=O)[C@H](Cc1ccccc1)NC(=O)c1cnccn1)B(O)O [Bortezomib] (partner 0.002 µM)
# In short: as §1
Cell Line,relative viability ([1]; first compound 0.08 µM),relative viability ([1]; first compound 0.8 µM),relative viability ([1]; first compound 2.53 µM),relative viability ([1]; first compound 8 µM),relative viability ([2]; first compound 0.08 µM),relative viability ([2]; first compound 0.8 µM),relative viability ([2]; first compound 2.53 µM),relative viability ([2]; first compound 8 µM),relative viability ([3]; first compound 0.08 µM),relative viability ([3]; first compound 0.8 µM),relative viability ([3]; first compound 2.53 µM),relative viability ([3]; first compound 8 µM),relative viability ([4]; first compound 0.08 µM),relative viability ([4]; first compound 0.8 µM),relative viability ([4]; first compound 2.53 µM),relative viability ([4]; first compound 8 µM),relative viability ([5]; first compound 0.08 µM),relative viability ([5]; first compound 0.8 µM),relative viability ([5]; first compound 2.53 µM),relative viability ([5]; first compound 8 µM)
BEN,0.872,0.816,0.81,0.762,0.478,0.471,0.5,0.428,0.979,1.06,0.786,0.773,0.738,0.825,0.661,0.627,0.88,0.901,0.924,0.531
EMC-BAC-2,0.804,0.81,0.775,0.676,0.28,0.249,0.27,0.254,0.507,0.483,0.443,0.422,0.87,0.905,0.859,0.724,0.989,1.08,0.995,0.923
LU99A,0.511,0.396,0.488,0.425,0.294,0.236,0.212,0.196,0.304,0.263,0.19,0.135,0.94,0.976,0.879,0.695,1.17,1.06,1.11,0.956
ABC-1,0.906,0.707,0.659,0.642,0.185,0.177,0.235,0.217,0.696,1.03,0.737,0.673,1.05,1.18,1.17,1.05,0.296,0.343,0.346,0.281
NCI-H2405,0.913,0.992,0.9,0.566,0.758,0.713,0.701,0.501,0.839,0.918,0.758,0.723,1.1,1.16,0.971,0.778,1.06,0.99,0.9,0.874
NCI-H2009,1.2,1.15,1.19,0.91,0.683,0.617,0.541,0.399,0.662,0.835,0.656,0.538,1.03,0.997,0.834,0.666,1.05,0.968,0.919,0.682
PC-14,1.08,0.932,0.958,0.684,0.584,0.572,0.599,0.368,0.276,0.248,0.164,0.0816,0.328,0.303,0.262,0.216,0.831,0.713,0.735,0.698
HARA,0.901,0.946,0.701,0.605,0.122,0.0974,0.258,0.0954,0.816,0.999,0.589,0.491,0.701,1.03,0.647,0.362,1.15,1.14,0.922,0.867
NCI-H2126,0.739,0.705,0.668,0.628,0.811,0.806,0.791,0.693,0.96,0.87,0.736,0.759,0.77,0.756,0.765,0.701,1.16,1.08,1.08,0.946
NCI-H1437,0.961,0.983,0.735,0.387,0.426,0.336,0.321,0.219,0.615,0.622,0.56,0.464,0.804,0.745,0.573,0.458,0.519,0.408,0.323,0.287
NCI-H661,0.5,0.58,0.502,0.441,0.355,0.337,0.37,0.338,0.684,0.663,0.619,0.485,0.391,0.521,0.425,0.402,0.708,0.669,0.793,0.674
COR-L23,0.865,0.806,0.891,0.478,0.18,0.211,0.182,0.151,0.345,0.298,0.298,0.193,0.906,0.924,0.931,0.517,1,0.816,0.86,0.576
COR-L 105,0.924,0.665,0.879,0.703,0.295,0.426,0.33,0.328,0.657,0.699,0.682,0.621,0.404,0.293,0.354,0.32,0.841,0.805,0.614,0.473
201T,1.05,1.02,0.995,1,0.899,0.915,0.886,0.669,0.861,0.799,0.776,0.695,1.02,1.05,1,0.936,1.11,1.08,1.03,1.03
HCC-44,0.719,0.692,0.708,0.61,1,0.921,0.929,0.605,1.08,1.01,1.01,0.956,1.12,0.951,1.09,0.861,0.882,0.823,0.933,0.806
NCI-H647,1.25,1.12,1.27,0.929,0.203,0.375,0.218,0.114,0.512,0.561,0.746,0.38,1.11,1.03,1.13,0.842,0.914,1.04,0.928,0.745
H3255,0.999,0.871,0.765,0.694,0.721,0.606,0.563,0.454,0.577,0.507,0.491,0.343,0.234,0.252,0.326,0.164,0.729,0.895,0.532,0.297
NCI-H650,1.08,0.906,0.77,0.675,0.747,0.688,0.667,0.581,0.39,0.355,0.338,0.327,0.92,0.956,0.663,0.774,0.97,0.847,0.724,0.649
NCI-H2085,0.872,0.86,0.784,0.667,0.752,0.779,0.716,0.464,0.773,0.694,0.718,0.605,0.76,0.794,0.735,0.693,1.13,1.03,0.954,0.745
NCI-H2347,1.02,1.02,0.873,0.633,0.555,0.641,0.442,0.405,0.557,0.568,0.601,0.446,0.957,0.907,0.793,0.659,1.22,0.691,0.981,0.553
NCI-H596,1.06,1.05,1.08,1.04,0.881,0.839,0.892,0.803,0.815,0.725,0.646,0.665,1.12,1.05,1.17,0.938,0.962,1.07,1.07,0.797
NCI-H520,1.08,0.972,1,0.657,0.432,0.438,0.363,0.338,0.344,0.381,0.32,0.196,0.845,0.88,0.834,0.652,0.622,0.604,0.425,0.279
EKVX,1.01,1.05,0.993,0.81,0.368,0.378,0.392,0.343,0.763,0.837,0.904,0.73,0.187,0.18,0.193,0.163,0.965,0.998,0.983,0.736
EPLC-272H,1.14,1.21,1.4,1.02,0.348,0.307,0.264,0.324,0.711,0.809,0.802,0.422,0.927,0.943,0.924,0.846,0.886,1.01,0.904,0.912
NCI-H2228,0.702,0.524,0.476,0.221,0.234,0.258,0.187,0.148,0.776,0.603,0.706,0.273,0.952,0.9,0.811,0.291,1.17,0.974,0.871,0.337
LXF-289,0.894,0.926,0.939,0.798,0.183,0.205,0.196,0.171,1.06,1.01,1.11,0.931,0.923,0.885,0.866,0.704,1.04,0.978,0.945,0.841
NCI-H2023,0.662,0.551,0.63,0.514,0.396,0.332,0.302,0.185,0.442,–,0.311,0.122,0.737,0.989,0.828,0.372,0.931,0.945,0.83,0.645
